pIC50: −log10 of the molar value. Read-outs that look alike come from different tables or passages of the source.
What was measured:
[1] = comparison value; cited from earlier work
[2] = In vitro (pH stability) assay: intramolecular cyclization-release of capsaicin; type: physicochemical
Protocol: These compounds are examples of pH activated prodrugs whereby upon exposure to a specific pH, the half-life of the intramolecular cyclization-release reaction is determined. As previously described, the intramolecular cyclization-release reaction results in the concomitant formation of a cyclic urea with the release of the parent drug.
Compounds were incubated in the buffer/biological media indicated (TRIS® obtained from Sigma-Aldrich, St. Louis, Mo., USA, Catalog No. T1503). The reactions were conducted at either room temperature or 37° C.

[3] = Solubility assay in DI water; type: physicochemical; conditions: for solubility at 24 h: thermodynamic from solid, HCl salts, incubated at 50 or 100 mg/mL in DI water, shaking 24 hours, supernatant quantified
Protocol: In order to determine the aqueous solubility of the compounds described herein, the HCl salts of the following compounds were incubated at either 50 or 100 mg/mL in DI water followed by shaking for 24 hours. The solutions were then centrifuged and visually inspected for insoluble material. In all cases, no insoluble material was observed.

[4] = target: T1, TRPV receptor (Rattus norvegicus, UniProt O35433); test: biochemical; type: binding
T1 construct: purchased Eurofins, Panlabs/Cerep 286810
T1 sequence (O35433 whole entry): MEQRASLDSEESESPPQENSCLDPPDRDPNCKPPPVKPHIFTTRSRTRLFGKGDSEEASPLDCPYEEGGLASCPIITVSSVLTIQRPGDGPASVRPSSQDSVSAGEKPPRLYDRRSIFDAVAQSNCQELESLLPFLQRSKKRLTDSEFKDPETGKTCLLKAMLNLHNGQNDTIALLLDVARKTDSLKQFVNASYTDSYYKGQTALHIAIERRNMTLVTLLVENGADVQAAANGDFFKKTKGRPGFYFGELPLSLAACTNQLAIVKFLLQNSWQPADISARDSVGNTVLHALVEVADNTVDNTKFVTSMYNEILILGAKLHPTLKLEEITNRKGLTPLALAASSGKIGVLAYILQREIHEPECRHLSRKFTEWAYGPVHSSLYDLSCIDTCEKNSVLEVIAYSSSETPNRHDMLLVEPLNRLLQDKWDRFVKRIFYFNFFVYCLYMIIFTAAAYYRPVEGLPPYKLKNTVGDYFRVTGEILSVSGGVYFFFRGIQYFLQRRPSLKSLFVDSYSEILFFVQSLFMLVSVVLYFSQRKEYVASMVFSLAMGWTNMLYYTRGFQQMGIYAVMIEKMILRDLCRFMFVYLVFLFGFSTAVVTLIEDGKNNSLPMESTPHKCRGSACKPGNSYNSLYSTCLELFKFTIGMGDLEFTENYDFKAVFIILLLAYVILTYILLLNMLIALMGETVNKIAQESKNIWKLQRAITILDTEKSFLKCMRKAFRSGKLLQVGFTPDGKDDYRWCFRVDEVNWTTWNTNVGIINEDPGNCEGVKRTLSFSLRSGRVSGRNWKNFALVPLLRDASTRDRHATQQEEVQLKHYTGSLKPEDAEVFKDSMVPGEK

[5] = target: T1, TRPV receptor; conditions: historical controls; read-out: historical control value; cited from earlier work
[6] = pH 7.4, pH = ~7.4 (0.3M aqueous tris buffer), 20° C., read-out: Intramolecular Cyclization-Release Half-life (T1/2)
[7] = pH 7.4, pH = ~7.4 (1.0M aqueous tris buffer), 37° C., read-out: Intramolecular Cyclization-Release Half-life (T1/2)

In the case of `COc1cc(CNC(=O)CCCCC=CC(C)C)ccc1O` [Capsaicin, 8-methyl-N-vanillyl-6-nonenamide], the “aqueous solubility of capsaicin in water” value [1] is given as about 0.064 mg/mL.
`COc1cc(CNC(=O)CCCC/C=C/C(C)C)ccc1OC(=O)N(C)CCN` [Compound 1, (E)-2-methoxy-4-((8-methylnon-6-enamido)methyl)phenyl (2-aminoethyl)(methyl)carbamate] showed a half-life [2, 6] of about 24.1 h.
In the case of `CNCCN(C)C(=O)Oc1ccc(CNC(=O)CCCC/C=C/C(C)C)cc1OC` [Compound 2, (E)-2-methoxy-4-((8-methylnon-6-enamido)methyl)phenyl methyl(2-(methylamino)ethyl)carbamate], the half-life [2, 6] was about 3.2 h.
In the case of `COc1cc(CNC(=O)CCCC/C=C/C(C)C)ccc1OC(=O)N1CCCCC1CN` (stereo not drawn) [Compound 3, (E)-2-methoxy-4-((8-methylnon-6-enamido)methyl)phenyl 2-(aminomethyl)piperidine-1-carboxylate], the half-life [2, 6] was about 0.527 h, the half-life [2, 7] was about 0.215 h and the “increase in aqueous solubility from the parent compound, capsaicin” value ([3]; hydrogen chloride salts vs capsaicin) was over 780 fold. It also gave a solubility at 24 h [3] of over 100 mg/mL.
`COc1cc(CNC(=O)CCCC/C=C/C(C)C)ccc1OC(=O)N1CCCC1CN` (stereo not drawn) [Compound 4, (E)-2-methoxy-4-((8-methylnon-6-enamido)methyl)phenyl 2-(aminomethyl)pyrrolidine-1-carboxylate] showed a half-life [2, 6] of about 295 h.
`COc1cc(CNC(=O)CCCC/C=C/C(C)C)ccc1OC(=O)N(CCN)CCN` [Compound 5, (E)-2-methoxy-4-((8-methylnon-6-enamido)methyl)phenyl bis(2-aminoethyl)carbamate] gave a half-life [2, 6] of about 1.18 h, a half-life [2, 7] of about 0.412 h and a solubility at 24 h [3] of over 100 mg/mL.
With `COc1cc(CNC(=O)CCCC/C=C/C(C)C)ccc1OC(=O)N(C)CCCN` [Compound 6, (E)-2-methoxy-4-((8-methylnon-6-enamido)methyl)phenyl (3-aminopropyl)(methyl)carbamate] the half-life [2, 6] was about 739 h.
In the case of `CNCC1CCCCN1C(=O)Oc1ccc(CNC(=O)CCCC/C=C/C(C)C)cc1OC` (stereo not drawn) [Compound 7, (E)-2-methoxy-4-((8-methylnon-6-enamido)methyl)phenyl 2-((methylamino)methyl)piperidine-1-carboxylate], the “intramolecular cyclization-release half-life, order of magnitude in words” value [2] was “minutes”, the “Intramolecular Cyclization-Release Half-life (T1/2)” value ([2]; pH 7.4) was about 3.1 min and the half-life ([2]; pH 7.4, Intramolecular Cyclization-Release Half-life (T1/2)) was about 0.0733 h. It also gave a solubility at 24 h [3] of over 50 mg/mL.
With `COc1cc(CNC(=O)CCCC/C=C/C(C)C)ccc1OC(=O)N1CCNCC1` [Compound 8, (E)-2-methoxy-4-((8-methylnon-6-enamido)methyl)phenyl piperazine-1-carboxylate] the inhibition at 100 µM ([4]; @ 100 uM) was 23%, the pIC50 ([4]; read-out: IC50) was under 4.00 and the half-life at 2 weeks ([2]; pH 7.4, pH = ~7.4 (0.3M aqueous tris buffer), 20° C., conversion to capsaicin over 2 weeks, read-out: Intramolecular Cyclization-Release Half-life (T1/2)) was over 336 h.
In the case of `C=C(C)[C@]12C[C@@H](C)[C@@]34O[C@](Cc5ccccc5)(O[C@@H]1[C@@H]3C=C(COC(=O)Cc1ccc(O)c(OC)c1)C[C@]1(O)C(=O)C(C)=C[C@@H]41)O2` [Resiniferatoxin, reference compound], the pIC50 [4] is listed as 9.80 and the pIC50 [5] is listed as 9.34.

From patent US11634384B2, “Prodrugs of phenolic TRPV1 agonists” (Concentric Analgesics, Inc., priority 2014, dated 2023)
